In patent publication US5395823A, “Neuropeptide Y agonists and partial agonists” (Merrell Dow Pharmaceuticals Inc., priority 1993, dated 1995):

Molecular target: receptors for neuropeptide Y (porcine spleen crude membranes)
Assay: 125I-Bolton-Hunter-neuropeptide Y binding in porcine spleen crude membranes
Conditions: competition with 0.1 nM BHNPY, room temperature 2 hr, pH 7.4
Description: 145:21-9 (1988). ^125 I-Bolton-Hunter-neuropeptide Y (BHNPY; Amersham) binding was carried out in porcine spleen crude membranes. Membranes from frozen spleen were prepared as described previously for tachykinin peptide binding studies (Buck et al., 1984). An aliquot of membrane preparation (approximately 15 mg tissue) was incubated at room temperature for 2 hr in buffer (pH 7.4) containing the peptide analog, 130 mM NaCl, 2.7 mM KCl, 2 mM MgCl2, 1.8 mM CaCl2, 20 mM HEPES, 4 mg/ml BSA, 40 μg/ml bacitracin, 4 μg/ml leupeptin and […] chymostatin. BHNPY was included in a concentration of 0.1 nM and non-specific binding was determined by the inclusion of 1 μM pNPY. Samples were rapidly filtered over Whatman GF/C filters presoaked overnight in 0.5% histone (type II-AS; Sigma) and washed two times with ice-cold, plain HEPES-salt buffer (pH 7.4). IC50 values for test peptides were calculated from 6 to 10 point competition curves.

In the case of “Y--P--S--K--P--D--N--P--G--E--D--A--P--A--E--E--L--S--Y--Y--A--A--L--R--H- -Y--L--N--L--L--T--R--Q--R--Y--# [Example 1]”, the IC50 is reported as < 50 nM.
